Assays:
[1] = test system: Renca cells (renal cell carcinoma); assay: Effect of isomers on in vivo tumour growth in mice challenged with Renca cells (Example 7); set-up: species or system Balb/c mice; conditions: for Tumour surface, overall values (Mean) / Tumour surface, overall values (Median) / Tumour volume, overall values (Mean) / Tumour volume, overall values (Median): 260 ng/mouse i.p. days 6, 7, 14
Text: This assay was made in order to check the effect of each stereoisomer on in vivo tumour growth in mice challenged with Renca cells. Their effect was compared with placebo. The stereoisomers assayed were:
Renca is a renal cell carcinoma originated in Balb/c mouse strain, and therefore syngeneic in mice with Balb/c genetic background [Melder R J et al., Cancer Immunol. Immunother., 2005, 54:535-547; Felluga B et al., 1969, J. Natl. Cancer Inst. 43:319-333]. Renca is considered a moderate immunogenic tumour and used as suitable model for testing immunointervention approaches [Salup R R, et al., 1992, The Journal of Urology, 147:1120-1123].
Renca cells (CLS, Eppelheim, Germany) were maintained in vitro by serial passages every 3-4 days. Cultures were performed with RPMI medium medium (RPMI, 10% foetal calf serum, 2 mM L-glutamine, non essential amino acids, 1 mM sodium pyruvate, 20 mM HEPES, 80 μg/mL gentamycin; all of them were purchased from Sigma, St. Louis, Mo., USA) by seeding 5×10^6 cells onto 75 cm^2 culture flasks. Tumour cells collected from 48 hour cultures upon trypsinization (Sigma, St. Louis, Mo., USA) were used as source of Renca cells for the studies described below.
Each isomer was tested at the dose levels of 260 ng administered on days 6, 7 and 14 after tumour inoculation.
The treatments were given by intraperitoneal route (i.p.). The volume inoculated was 0.2 mL/animal. This route was chosen because it is the one described in the original method [Pérez S, et al., 2003, Clinical Cancer Research. 9:5776-5785].
Tumours were established by subcutaneous inoculation in the right hind flank. Mice (Balb/c) were inoculated with 0.2 mL containing 10^5 viable Renca cells. The day of subcutaneous inoculation will be considered Day 0 of the test.
Mice were observed daily and the tumour size recorded twice a week. This was carried out by measuring two perpendicular diameters (L/W) with a calliper. These measures were used to obtain both tumour surface and volume: Tumour surface=L×W(mm^2) Tumour volume=L×W^2×½(mm^3)
(§1) Results were expressed as single values and/or as the mean±SD or median from each experimental group.
A case-control study was performed with treated and control mice in order to determine whether differences between isomers and administration of placebo were present. […] The U-test of Mann Withney was chosen for being one of the better known non-parametrical tests, anyway, results for this test are equivalent both to those of Wilcoxon's sum of ranges and Kruskal-Wallis two-groups test.
Due to the high dispersion of data, outlayers (animals beyond percentile 25 or above percentile 75 for tumour surface at day 25) were excluded of the study.

[2] = test system: ASB XIV cells (pulmonary squamous cell carcinoma); assay: Effect of isomers and BLAS on in vivo tumour growth, ASB XIV tumours (Example 8); set-up: species or system Balb/c mice; conditions: for Tumour surface, overall values (Mean) / Tumour surface, overall values (Median) / Tumour volume, overall values (Mean) / Tumour volume, overall values (Median): 260 ng/mouse i.p. days 6, 7 and 14
Text: This assay was made in order to compare the effect of each stereoisomer on in vivo tumour growth in mice with the effect of the mixture of all of them challenged with ASB XIV tumours. The stereoisomers assayed were the same as in example 7 above plus a mixture of all of them (BLAS). The equipment (when needed), reagents, dose, vehicle and route and volume of administration were the same as in example 7.
ASB XIV is a pulmonary squamous cell carcinoma originated in Balb/c mouse strain, and therefore syngeneic in mice with Balb/c genetic background.
ASB XIV cells (CLS, Eppelheim, Germany) were maintained in vitro by serial passages every 3-4 days. Cultures were performed with RPMI medium medium (RPMI, 10% foetal calf serum, 2 mM L-glutamine, non essential aminoacids, 1 mM sodium pyruvate, 20 mM HEPES, 80 μg/mL gentamycin; all of them were purchased from Sigma, St. Louis, Mo., USA) by seeding 5×10^6 cells onto 75 cm^2 culture flasks. Tumour cells collected from 48 hour cultures upon trypsinization (Sigma, St. Louis, Mo., USA) were used as source of ASB XIV cells in the present example.
• BLAS (mixture of isomers 1, 2, 3 and 4) at a concentration of 65 μg/mL in sterile physiological saline. Isomer 1 (9b) at a concentration of 65 μg/mL in sterile physiological saline. • Isomer 2 (9c) at a concentration of 65 μg/mL in sterile physiological saline. • Isomer 3 (9a) at a concentration of 65 μg/mL in sterile physiological saline. • Isomer 4 (9d) at a concentration of 65 μg/mL in sterile physiological saline. Placebo
Tumours were established by subcutaneous inoculation in the right hind flank. Mice (Balb/c) were inoculated with 0.2 mL containing 2×10^5 viable ASB XIV cells. The day of subcutaneous inoculation will be considered Day 0 of the test.
Mice were observed daily and the tumour size recorded twice a week. This was carried out by measuring two perpendicular diameters (d1/d2) with a calliper. These measures were used to obtain both tumour surface and volume: Tumour surface=d1×d2(mm^2) Tumour volume=d1×d2^2×½(mm^3)
as §1
A case-control study was performed with treated and control mice in order to determine whether differences between BLAS or each diferent stereoisomer and administration of placebo were present. […] The U-test of Mann Withney was chosen for being one of the better known non-parametrical tests, anyway, results for this test are equivalent both to those of Wilcoxon's sum of ranges and Kruskal-Wallis two-groups test.
Due to the high dispersion of data, outlayers (animals beyond percentile 10 or above percentile 90 for tumour surface at day 33) were excluded of the study.

[3] = day 11 after tumour inoculation
[4] = day 14 after tumour inoculation
[5] = day 12 after tumour inoculation
[6] = day 15 after tumour inoculation
[7] = day 19 after tumour inoculation
[8] = day 22 after tumour inoculation
[9] = day 26 after tumour inoculation
[10] = day 29 after tumour inoculation
[11] = day 33 after tumour inoculation

With Br.N[C@]1(C[n+]2ccccc2)C[C@H](C(=O)O)NC1=O.[Br-] (single isomer, unassigned; isomer 4) [isomer 4, 3S,5R-1-(3-Amino-5-carboxy-2-oxopyrrolidin-3-ylmethyl)pyridinium bromide hidrobromide] the “Inhibition of the in vivo growth of the renal cell carcinoma (Renca), in words” value ([1]; 260 ng i.p. days 6, 7, 14) was “inhibit the in vivo growth”, the “Inhibitory effect on Renca tumour growth compared among isomers, in words” value ([1]; 260 ng i.p. days 6, 7, 14) was “highest inhibitory effect” and the “Tumour surface, overall values (Mean)” value ([1]; day 0 after tumour inoculation) was 0 mm^2. For the same compound, the “Tumour surface, overall values (Median)” value ([1]; day 0 after tumour inoculation) was 0 mm^2, the “Tumour volume, overall values (Mean)” value ([1]; day 0 after tumour inoculation) was 0 mm^3 and the “Tumour volume, overall values (Median)” value ([1]; day 0 after tumour inoculation) was 0 mm^3. For the same compound, the “Tumour surface, overall values (Mean)” value [1, 3] was 0 mm^2, the “Tumour surface, overall values (Median)” value [1, 3] was 0 mm^2 and the “Tumour volume, overall values (Mean)” value [1, 3] was 0 mm^3. For the same compound, the “Tumour volume, overall values (Median)” value [1, 3] was 0 mm^3, the “Tumour surface, overall values (Median)” value [1, 4] was 0 mm^2 and the “Tumour volume, overall values (Median)” value [1, 4] was 0 mm^3. For the same compound, the “Tumour surface, overall values (Median)” value ([1]; day 18 after tumour inoculation) was 9 mm^2, the “Differences in Renca tumour growth rate vs. placebo, statistical significance p (Mann-Whitney U test)” value ([1]; either in surface or volume, all days scored after the day 14th) was under 0.01 and the “Inhibition of the in vivo growth of the lung carcinoma ASB XIV, in words” value ([2]; 260 ng i.p. days 6, 7 and 14) was “inhibit the in vivo growth”. The “Tumour surface, overall values (Mean)” value ([2]; day 0 after tumour inoculation) was 0 mm^2, the “Tumour surface, overall values (Median)” value ([2]; day 0 after tumour inoculation) was 0 mm^2 and the “Tumour volume, overall values (Mean)” value ([2]; day 0 after tumour inoculation) was 0 mm^3. For the same compound, the “Tumour volume, overall values (Median)” value ([2]; day 0 after tumour inoculation) was 0 mm^3, the “Tumour surface, overall values (Mean)” value ([2]; day 8 after tumour inoculation) was 0 mm^2 and the “Tumour surface, overall values (Median)” value ([2]; day 8 after tumour inoculation) was 0 mm^2. The “Tumour volume, overall values (Mean)” value ([2]; day 8 after tumour inoculation) was 0 mm^3, the “Tumour volume, overall values (Median)” value ([2]; day 8 after tumour inoculation) was 0 mm^3 and the “Tumour surface, overall values (Mean)” value [2, 5] was 0.17 mm^2. The “Tumour surface, overall values (Median)” value [2, 5] was 0 mm^2, the “Tumour volume, overall values (Mean)” value [2, 5] was 0.16 mm^3 and the “Tumour volume, overall values (Median)” value [2, 5] was 0 mm^3. For the same compound, the “Tumour surface, overall values (Mean)” value [2, 6] was 2.79 mm^2, the “Tumour surface, overall values (Median)” value [2, 6] was 0 mm^2 and the “Tumour volume, overall values (Mean)” value [2, 6] was 5.29 mm^3. The “Tumour volume, overall values (Median)” value [2, 6] was 0 mm^3, the “Tumour surface, overall values (Mean)” value [2, 7] was 14.59 mm^2 and the “Tumour surface, overall values (Median)” value [2, 7] was 9 mm^2. The “Tumour volume, overall values (Mean)” value [2, 7] was 36.5 mm^3, the “Tumour surface, overall values (Mean)” value [2, 8] was 34.52 mm^2 and the “Tumour volume, overall values (Mean)” value [2, 8] was 118.19 mm^3. For the same compound, the “Tumour surface, overall values (Mean)” value [2, 9] was 65.86 mm^2, the “Tumour surface, overall values (Median)” value [2, 9] was 49 mm^2 and the “Tumour volume, overall values (Mean)” value [2, 9] was 297.83 mm^3. For the same compound, the “Tumour volume, overall values (Median)” value [2, 9] was 171.5 mm^3, the “Tumour surface, overall values (Mean)” value [2, 10] was 90.28 mm^2 and the “Tumour surface, overall values (Median)” value [2, 10] was 81 mm^2. The “Tumour volume, overall values (Mean)” value [2, 10] was 451.55 mm^3, the “Tumour volume, overall values (Median)” value [2, 10] was 364.5 mm^3 and the “Tumour surface, overall values (Mean)” value [2, 11] was 123.45 mm^2. For the same compound, the “Tumour surface, overall values (Median)” value [2, 11] was 110 mm^2, the “Tumour volume, overall values (Mean)” value [2, 11] was 700.66 mm^3 and the “Tumour volume, overall values (Median)” value [2, 11] was 550 mm^3. For the same compound, the “Differences in ASB XIV tumour growth rate vs. placebo, statistical significance p (Mann-Whitney U test)” value ([2]; either in surface or volume, all days scored after the day 26th) was under 0.05.

Source: patent publication US8835466B2, “Synthesis and uses of pyroglutamic acid derivatives” (Prodimed, S.A., priority 2006, dated 2014)
